SMILES strings stand for the structures.

The test addresses T1, Y2 receptors (Homo sapiens, UniProt P49146).
T1 construct: endogenous in cells; host or cells: KAN-Ts cells (membranes)
T1 sequence (P49146 1-381): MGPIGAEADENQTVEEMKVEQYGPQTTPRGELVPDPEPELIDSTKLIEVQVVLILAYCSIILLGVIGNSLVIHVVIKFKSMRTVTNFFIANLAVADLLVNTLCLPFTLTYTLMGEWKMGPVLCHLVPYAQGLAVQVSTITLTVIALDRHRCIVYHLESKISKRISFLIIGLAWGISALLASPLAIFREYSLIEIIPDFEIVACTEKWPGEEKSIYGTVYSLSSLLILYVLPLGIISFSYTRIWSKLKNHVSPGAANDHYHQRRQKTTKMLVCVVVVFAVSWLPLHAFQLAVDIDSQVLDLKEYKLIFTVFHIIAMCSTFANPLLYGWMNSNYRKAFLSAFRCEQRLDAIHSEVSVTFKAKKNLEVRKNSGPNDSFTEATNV
The experiment in a line: Radioligand binding assay ([125I]PYY, KAN-Ts cell membranes). The following applies: Table 2, [125I]PYY 80 pM, average of results, read-out: IC50. Put shortly:
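Membranes from KAN-Ts cells endogenously expressing Y2 incubated 1 h at rt with 80 pM [^125I]PYY ± test compound in HEPES buffer with NaCl, Ca^2+ and Mg^2+. Bound radioactivity collected by filtration; specific binding defined with […]. IC50 from sigmoidal fit, averaged over 3-8 duplicate experiments.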
Consider `CCN(CC)C(=O)C(c1ccccc1)N1CCN(c2ccc(C(=O)C3CCCC3)cc2F)CC1` (centres unmarked) [Example 167, 2-[4-(4-Cyclopentanecarbonyl-2-fluoro-phenyl)-piperazin-1-yl]-N,N-diethyl-2-phenyl-acetamide], for which the IC50 was 3300 nM.
`CCN(CC)C(=O)C(c1ccccc1)N1CCN(c2ccc(/C(=N/O)C3CCCC3)cc2F)CC1` (centres unmarked) [Example 168, 2-{4-[4-(Cyclopentyl-hydroxyimino-methyl)-2-fluoro-phenyl]-piperazin-1-yl}-N,N-diethyl-2-phenyl-acetamide]: the IC50 worked out at 740 nM.
The figure for `CCC(C)C(=O)c1ccc(N2CCN(C(C(=O)N(CC)CC)c3ccccc3)CC2)c(F)c1` (centres unmarked) [Example 169, N,N-Diethyl-2-{4-[2-fluoro-4-(2-methyl-butyryl)-phenyl]-piperazin-1-yl}-2-phenyl-acetamide] is 410 nM.
Consider `CCC(CC)C(=O)NCc1ccc(N2CCN(C(C(=O)N(CC)CC)c3ccccc3)CC2)c(F)c1` (centres unmarked) [Example 170, N-{4-[4-(Diethylcarbamoyl-phenyl-methyl)-piperazin-1-yl]-3-fluoro-benzyl}-2-ethyl-butyramide], for which the IC50 was found to be 260 nM.
On to `CCOC(=O)C(c1ccccc1)N1CCN(c2ccc(N3CCN(C(CC)CC)S3(=O)=O)cc2F)CC1` (centres unmarked) [Example 171, {4-[2-Fluoro-4-(5-(3-pentyl)-1,2,5-thiadiazolidine-2-yl,1,1-dioxide)-phenyl]-piperazin-1-yl}-phenyl-acetic acid ethyl ester], for which the IC50 worked out at 270 nM.
`CCCNS(=O)(=O)N(CCC)c1ccc(N2CCN(C(C(=O)N(CC)CC)c3ccccc3)CC2)c(F)c1` (centres unmarked) [Example 172, 2-{4-[4-(1,3-Dipropyl-sulfamoyl)-2-fluoro-phenyl]-piperazin-1-yl}-N,N-diethyl-2-phenyl-acetamide]: the IC50 was 520 nM.
With `CCN(CC)C(=O)C(c1ccccc1)N1CCN(c2ccc(N3CCN(C(=O)OC)S3(=O)=O)cc2F)CC1` (centres unmarked) [Example 173, 3-{4-[4-(Diethylcarbamoyl-phenyl-methyl)-piperazin-1-yl]-3-fluoro-phenyl}-1,2,5-thiadiazolidine, 1,1-dioxide-2-carboxylic acid methyl ester] the figure was 590 nM.
With `CCN(CC)C(=O)C(c1ccccc1)N1CCN(c2ccc(N3CCNS3(=O)=O)cc2F)CC1` (centres unmarked) [Example 174, N,N-Diethyl-2-{4-[2-fluoro-4-(1,2,5-thiadiazolidine-2-yl,1,1-dioxide)-phenyl]-piperazin-1-yl}-2-phenyl-acetamide] the figure was 4000 nM; with `CCOC(=O)C(c1ccccc1)N1CCN(c2ccc(N3CCN(C(=O)OC)S3(=O)=O)cc2F)CC1` (centres unmarked) [Example 175, 3-{4-[4-(Ethoxycarbonyl-phenyl-methyl)-piperazin-1-yl]-3-fluoro-phenyl}-1,2,5-thiadiazolidine, 1,1-dioxide-2-carboxylic acid methyl ester], at least 10000 nM; with `CCOC(=O)C(c1ccccc1)N1CCN(c2ccc(N3CCNS3(=O)=O)cc2F)CC1` (centres unmarked) [Example 176, {4-[2-Fluoro-4-(1,2,5-Thiadiazolidine-2-yl,1,1-dioxide)-phenyl]-piperazin-1-yl}-phenyl-acetic acid ethyl ester], at least 10000 nM.
As for `CCOC(=O)C(c1ccccc1)N1CCN(c2ccc(N3CCN(C4CCN(CC)C4)S3(=O)=O)cc2F)CC1` (centres unmarked) [Example 177, {4-[2-Fluoro-4-(5-(1-Ethyl-pyrrolidin-3-yl)-1,2,5-thiadiazolidine-2-yl, 1,1-dioxide)-phenyl]-piperazin-1-yl}-phenyl-acetic acid ethyl ester], the IC50 was at least 10000 nM.
Regarding `CCOC(=O)C(c1ccccc1)N1CCN(c2ccc(N3CCN(C4CCOC4)S3(=O)=O)cc2F)CC1` (centres unmarked) [Example 178, {4-[2-Fluoro-4-(5-(tetrahydro-furan-3-yl)-1,2,5-thiadiazolidine-2-yl, 1,1-dioxide)-phenyl]-piperazin-1-yl}-phenyl-acetic acid ethyl ester], the IC50 is 2900 nM.
With `CCCN1CCN(c2ccc(N3CCN(C(C(=O)OCC)c4ccccc4)CC3)c(F)c2)S1(=O)=O` (centres unmarked) [Example 179, {4-[2-Fluoro-4-(5-propyl-1,2,5-thiadiazolidine-2-yl,1,1-dioxide)-phenyl]-piperazin-1-yl}-phenyl-acetic acid ethyl ester] the figure was 540 nM.
With `CCOC(=O)C(c1ccccc1)N1CCN(c2ccc(N3CCN(C4CCCC4)S3(=O)=O)cc2F)CC1` (centres unmarked) [Example 180, {4-[2-Fluoro-4-(5-cyclopentyl-1,2,5-thiadiazolidine-2-yl,1,1-dioxide)-phenyl]-piperazin-1-yl}-phenyl-acetic acid ethyl ester] the figure was 770 nM; with `CCN(CC)C(=O)C(c1ccccc1)N1CC=C(c2ccc(C(=O)OC)cc2F)CC1` (centres unmarked) [Example 181, 4-[1-(Diethylcarbamoyl-phenyl-methyl)-1,2,3,6-tetrahydro-pyridin-4-yl]-3-fluoro-benzoic acid methyl ester], 9300 nM; with `CCC(CC)C(=O)Nc1cnc(N2CCN(C(C(=O)N(CC)CC)c3ccccc3)CC2)nc1` (centres unmarked) [Example 182, N-{2-[4-(Diethylcarbamoyl-phenyl-methyl)-piperazin-1-yl]-pyrimidin-5-yl}-2-ethyl-butyramide], 1650 nM.
Regarding `CCC(CC)C(=O)Nc1ccc(N2CCN(C(C(=O)N(CC)CC)c3ccccc3)CC2)nn1` (centres unmarked) [Example 183, N-{6-[4-(Diethylcarbamoyl-phenyl-methyl)-piperazin-1-yl]-pyridazin-3-yl}-2-ethyl-butyramide], the IC50 is 4500 nM.
Consider `CCC(CC)C(=O)Nc1ccc(N2CCN(C(C(=O)NN)c3ccccc3)CC2)c(F)c1` (centres unmarked) [Example 184, 2-Ethyl-N-{3-fluoro-4-[4-(hydrazinocarbonyl-phenyl-methyl)-piperazin-1-yl]-phenyl}-butyramide], for which the half-maximal inhibitory concentration (IC50) was determined as 870 nM.
The figure for `CCN(CC)C(=O)C(c1ccccc1)N1CCN(c2ccc(C(=O)OC)cc2F)CC1` (centres unmarked) [Example 185, 4-[4-(Diethylcarbamoyl-phenyl-methyl)-piperazin-1-yl]-3-fluoro-benzoic acid methyl ester] is 2400 nM; for `CCN(CC)C(=O)C(c1ccccc1)C1CCN(c2ccc(NC(=O)c3ccnn3CC)cc2F)CC1` (centres unmarked) [Example 186, 2-Ethyl-2H-pyrazole-3-carboxylic acid {4-[4-(diethylcarbamoyl-phenyl-methyl)-piperidin-1-yl]-3-fluoro-phenyl}-amide] it is 210 nM.
Take `CCN(CC)C(=O)C(c1ccccc1)C1CCN(c2ccc(NC(=O)c3cccn3CC)cc2F)CC1` (centres unmarked) [Example 187, 1-Ethyl-1H-pyrrole-2-carboxylic acid {4-[4-(diethylcarbamoyl-phenyl-methyl)-piperidin-1-yl]-3-fluoro-phenyl}-amide]: the IC50 amounted to 148 nM.
The figure for `CCCCC(O)(c1ccccc1)C1CCN(c2ccc(NC(=O)C(CC)CC)cc2F)CC1` (centres unmarked) [Example 188, 2-Ethyl-N-{3-fluoro-4-[4-(1-hydroxy-1-phenyl-pentyl)-piperidin-1-yl]-phenyl}-butyramide] is 200 nM.
With `CCCCC(c1ccccc1)C1CCN(c2ccc(NC(=O)C(CC)CC)cc2F)CC1` (centres unmarked) [Example 189, 2-Ethyl-N-{3-fluoro-4-[4-(1-phenyl-pentyl)-piperidin-1-yl]-phenyl}-butyramide] the figure was at least 10000 nM.

Source of the values: patent US8183239B2, “Substituted piperazines and piperidines as modulators of the neuropeptide Y2 receptor” (Janssen Pharmaceutica NV, priority 2005, dated 2012).
